Source: patent US8192962B2, “Processes for detecting toxic substances” (Daikin Industries, Ltd., priority 2001, dated 2012)

Test system: Metabolism protein genes
Experiment: DNA chip mRNA expression in yeast, metabolism protein genes (Table 7)
Format: cell-based, Saccharomyces cerevisiae S288C
Description: Yeast (Saccharomyces cerevisiae S288C (α SUC2mal mel gap2 CUP1)) were incubated at 25° C. on YPD medium (yeast extract 1%, polypepton 2%, glucose 2%). One of toxic chemical substances was added to the cells at logarithmic growth phase, and the cells were further incubated for two hours. Cells were cultured without any chemical substance in the same condition, and were used as control. Concentrations of the chemical substances were defined to inhibit the growth of the yeast but not lead to death.
After completion of the incubation, the culture was centrifuged to collect the cells. To the cells, sodium acetate buffer (50 mM sodium acetate, 10 mM EDTA, 1% SDS) was added, and the mixture was shaken at 65° C. for five minutes, followed by returning to room temperature, and obtaining the supernatant, of which the procedures were repeated two times. To the supernatant, ½ amount of a solution of phenol/chloroform was added, and the mixture was centrifuged to give a supernatant, which was added with an equal amount of chloroform, and the mixture was centrifuged to give a supernatant. To the supernatant, an equal amount of isopropanol containing 0.3 M sodium acetate was added, and the mixture was allowed to stand at room temperature for 30 minutes, after which the mixture was centrifuged to give a sediment of the whole RNAs. Seventy % ethanol was added to the sediment, and the mixture was again centrifuged to give a sediment, which was then dried and dissolved in water. mRNA was isolated from the whole RNAs as followings. In view of the fact that a poly A chain is attached to the 3′ terminus of mRNA, a polynucleotide having a poly T structure which was immobilized on the surface of latex beads was used to trap the mRNA, and then the mRNA was washed and eluted with spine column (Oligotex-dT30<Super>mRNA Purification Kit, Takara). Reverse transcription of the mRNA was conducted with a reverse transcriptase (Super Script II Reverse Transcriptase; catalogue No. 18064-014, GibcoBRL) using fluorescence-labeled nucleotides to give cDNAs that were introduced with Cy3-dUTP or Cy5-dUTP during the reverse transcription.
The labeled cDNAs were dissolved in TE buffer (10mM Tris-HCl/1 mM EDTA, pH8.0), and the solution was dropped on the DNA chip containing the whole genes of yeast (DNA Chip Research Inc. Japan) so that the cDNAs were hybridized on the DNA chip at 65° C. for over 12 hours. The fluoresces intensity of the DNA chip was read with a scanner, and the ratio relative to the fluorescence intensity resulting from the absence of chemical substance was estimated as the following, which is shown in Tables 1 to 9: […]

CCCCCCCCCCCCOS(=O)(=O)[O-].[Na+] [(18), sodium lauryl sulfate]
0.6: level of expressed mRNA in the presence/in the absence of chemical substance (yeast gene YLR372W) | level of expressed mRNA in the presence/in the absence of chemical substance (yeast gene YMR323W)
4.0: The level of expressed mRNA in the presence of chemical substance/The level of expressed mRNA in the absence of chemical substance (yeast gene YNL231C)
2.0: The level of expressed mRNA in the presence of chemical substance/The level of expressed mRNA in the absence of chemical substance (yeast gene YKL091C) | The level of expressed mRNA in the presence of chemical substance/The level of expressed mRNA in the absence of chemical substance (yeast gene YNR019W) | level of expressed mRNA in the presence/in the absence of chemical substance (yeast gene YPL057C)
0.9: The level of expressed mRNA in the presence of chemical substance/The level of expressed mRNA in the absence of chemical substance (yeast gene YKL215C) | level of expressed mRNA in the presence/in the absence of chemical substance (yeast gene YLR044C) | level of expressed mRNA in the presence/in the absence of chemical substance (yeast gene YLR081W) | The level of expressed mRNA in the presence of chemical substance/The level of expressed mRNA in the absence of chemical substance (yeast gene YNL104C) | The level of expressed mRNA in the presence of chemical substance/The level of expressed mRNA in the absence of chemical substance (yeast gene YNL106C) | level of expressed mRNA in the presence/in the absence of chemical substance (yeast gene YOL156W) | level of expressed mRNA in the presence/in the absence of chemical substance (yeast gene YOR085W) | level of expressed mRNA in the presence/in the absence of chemical substance (yeast gene YOR348C)
2.7: level of expressed mRNA in the presence/in the absence of chemical substance (yeast gene YOL108C) | level of expressed mRNA in the presence/in the absence of chemical substance (yeast gene YPR165W)
2.4: The level of expressed mRNA in the presence of chemical substance/The level of expressed mRNA in the absence of chemical substance (yeast gene YOL126C)
0.8: level of expressed mRNA in the presence/in the absence of chemical substance (yeast gene YLR058C) | The level of expressed mRNA in the presence of chemical substance/The level of expressed mRNA in the absence of chemical substance (yeast gene YMR189W) | The level of expressed mRNA in the presence of chemical substance/The level of expressed mRNA in the absence of chemical substance (yeast gene YOL058W) | The level of expressed mRNA in the presence of chemical substance/The level of expressed mRNA in the absence of chemical substance (yeast gene YPL017C)
1.4: The level of expressed mRNA in the presence of chemical substance/The level of expressed mRNA in the absence of chemical substance (yeast gene YLR299W) | level of expressed mRNA in the presence/in the absence of chemical substance (yeast gene YOL116W) | The level of expressed mRNA in the presence of chemical substance/The level of expressed mRNA in the absence of chemical substance (yeast gene YPR167C)
3.1: The level of expressed mRNA in the presence of chemical substance/The level of expressed mRNA in the absence of chemical substance (yeast gene YOR153W)
1.8: level of expressed mRNA in the presence/in the absence of chemical substance (yeast gene YPL028W)
3.6: The level of expressed mRNA in the presence of chemical substance/The level of expressed mRNA in the absence of chemical substance (yeast gene YPL147W)
1.9: The level of expressed mRNA in the presence of chemical substance/The level of expressed mRNA in the absence of chemical substance (yeast gene YKL035W) | The level of expressed mRNA in the presence of chemical substance/The level of expressed mRNA in the absence of chemical substance (yeast gene YMR008C) | level of expressed mRNA in the presence/in the absence of chemical substance (yeast gene YPR113W)
3.0: The level of expressed mRNA in the presence of chemical substance/The level of expressed mRNA in the absence of chemical substance (yeast gene YMR081C)
1.3: The level of expressed mRNA in the presence of chemical substance/The level of expressed mRNA in the absence of chemical substance (yeast gene YLL058W) | level of expressed mRNA in the presence/in the absence of chemical substance (yeast gene YLR089C) | The level of expressed mRNA in the presence of chemical substance/The level of expressed mRNA in the absence of chemical substance (yeast gene YML070W) | level of expressed mRNA in the presence/in the absence of chemical substance (yeast gene YNL025C) | The level of expressed mRNA in the presence of chemical substance/The level of expressed mRNA in the absence of chemical substance (yeast gene YNL169C) | The level of expressed mRNA in the presence of chemical substance/The level of expressed mRNA in the absence of chemical substance (yeast gene YNL331C) | level of expressed mRNA in the presence/in the absence of chemical substance (yeast gene YOL086C) | level of expressed mRNA in the presence/in the absence of chemical substance (yeast gene YOR251C) | The level of expressed mRNA in the presence of chemical substance/The level of expressed mRNA in the absence of chemical substance (yeast gene YOR347C) | The level of expressed mRNA in the presence of chemical substance/The level of expressed mRNA in the absence of chemical substance (yeast gene YPR026W)
0.5: The level of expressed mRNA in the presence of chemical substance/The level of expressed mRNA in the absence of chemical substance (yeast gene YLR300W) | level of expressed mRNA in the presence/in the absence of chemical substance (yeast gene YMR205C)
2.1: level of expressed mRNA in the presence/in the absence of chemical substance (yeast gene YOR176W)
1.2: level of expressed mRNA in the presence/in the absence of chemical substance (yeast gene YOR128C)
2.5: The level of expressed mRNA in the presence of chemical substance/The level of expressed mRNA in the absence of chemical substance (yeast gene YKR009C)
2.8: level of expressed mRNA in the presence/in the absence of chemical substance (yeast gene YNL192W)
1.6: The level of expressed mRNA in the presence of chemical substance/The level of expressed mRNA in the absence of chemical substance (yeast gene YKL213C) | The level of expressed mRNA in the presence of chemical substance/The level of expressed mRNA in the absence of chemical substance (yeast gene YML054C) | level of expressed mRNA in the presence/in the absence of chemical substance (yeast gene YMR011W)
2.3: The level of expressed mRNA in the presence of chemical substance/The level of expressed mRNA in the absence of chemical substance (yeast gene YOR099W)
1.0: level of expressed mRNA in the presence/in the absence of chemical substance (yeast gene YKL148C) | level of expressed mRNA in the presence/in the absence of chemical substance (yeast gene YKR034W) | level of expressed mRNA in the presence/in the absence of chemical substance (yeast gene YLR006C) | The level of expressed mRNA in the presence of chemical substance/The level of expressed mRNA in the absence of chemical substance (yeast gene YLR273C) | The level of expressed mRNA in the presence of chemical substance/The level of expressed mRNA in the absence of chemical substance (yeast gene YLR307W) | The level of expressed mRNA in the presence of chemical substance/The level of expressed mRNA in the absence of chemical substance (yeast gene YLR348C) | level of expressed mRNA in the presence/in the absence of chemical substance (yeast gene YMR015C) | The level of expressed mRNA in the presence of chemical substance/The level of expressed mRNA in the absence of chemical substance (yeast gene YNL322C) | The level of expressed mRNA in the presence of chemical substance/The level of expressed mRNA in the absence of chemical substance (yeast gene YNL332W) | The level of expressed mRNA in the presence of chemical substance/The level of expressed mRNA in the absence of chemical substance (yeast gene YOL165C) | level of expressed mRNA in the presence/in the absence of chemical substance (yeast gene YOR142W) | The level of expressed mRNA in the presence of chemical substance/The level of expressed mRNA in the absence of chemical substance (yeast gene YOR336W) | level of expressed mRNA in the presence/in the absence of chemical substance (yeast gene YPR183W)
1.1: The level of expressed mRNA in the presence of chemical substance/The level of expressed mRNA in the absence of chemical substance (yeast gene YKL104C) | The level of expressed mRNA in the presence of chemical substance/The level of expressed mRNA in the absence of chemical substance (yeast gene YKR039W) | level of expressed mRNA in the presence/in the absence of chemical substance (yeast gene YLR056W) | level of expressed mRNA in the presence/in the absence of chemical substance (yeast gene YMR083W) | level of expressed mRNA in the presence/in the absence of chemical substance (yeast gene YMR261C) | The level of expressed mRNA in the presence of chemical substance/The level of expressed mRNA in the absence of chemical substance (yeast gene YNL045W) | The level of expressed mRNA in the presence of chemical substance/The level of expressed mRNA in the absence of chemical substance (yeast gene YNR033W) | level of expressed mRNA in the presence/in the absence of chemical substance (yeast gene YOR002W) | level of expressed mRNA in the presence/in the absence of chemical substance (yeast gene YOR108W) | The level of expressed mRNA in the presence of chemical substance/The level of expressed mRNA in the absence of chemical substance (yeast gene YOR130C) | level of expressed mRNA in the presence/in the absence of chemical substance (yeast gene YPL148C)
8.1: level of expressed mRNA in the presence/in the absence of chemical substance (yeast gene YLR284C)
1.5: level of expressed mRNA in the presence/in the absence of chemical substance (yeast gene YKL157W) | level of expressed mRNA in the presence/in the absence of chemical substance (yeast gene YLR354C) | The level of expressed mRNA in the presence of chemical substance/The level of expressed mRNA in the absence of chemical substance (yeast gene YML100W) | The level of expressed mRNA in the presence of chemical substance/The level of expressed mRNA in the absence of chemical substance (yeast gene YNL012W) | level of expressed mRNA in the presence/in the absence of chemical substance (yeast gene YOR103C) | level of expressed mRNA in the presence/in the absence of chemical substance (yeast gene YOR178C)
0.7: The level of expressed mRNA in the presence of chemical substance/The level of expressed mRNA in the absence of chemical substance (yeast gene YLR180W) | level of expressed mRNA in the presence/in the absence of chemical substance (yeast gene YLR304C) | level of expressed mRNA in the presence/in the absence of chemical substance (yeast gene YML022W) | The level of expressed mRNA in the presence of chemical substance/The level of expressed mRNA in the absence of chemical substance (yeast gene YMR296C)
2.6: The level of expressed mRNA in the presence of chemical substance/The level of expressed mRNA in the absence of chemical substance (yeast gene YMR105C)
2.2: The level of expressed mRNA in the presence of chemical substance/The level of expressed mRNA in the absence of chemical substance (yeast gene YMR020W) | The level of expressed mRNA in the presence of chemical substance/The level of expressed mRNA in the absence of chemical substance (yeast gene YMR271C) | The level of expressed mRNA in the presence of chemical substance/The level of expressed mRNA in the absence of chemical substance (yeast gene YNR059W)
1.7: level of expressed mRNA in the presence/in the absence of chemical substance (yeast gene YKL060C) | The level of expressed mRNA in the presence of chemical substance/The level of expressed mRNA in the absence of chemical substance (yeast gene YKL152C) | The level of expressed mRNA in the presence of chemical substance/The level of expressed mRNA in the absence of chemical substance (yeast gene YOL153C) | level of expressed mRNA in the presence/in the absence of chemical substance (yeast gene YPL135W)
